This note sets out measurements from patent US6808873B2, “Screening assays using intramitochondrial calcium” (MitoKor, Inc., priority 2000, dated 2004).

Experiment [1] has as its system Ca^2+ uniporter. Description: Ca^2+ uniporter assay, adherent permeabilized MixCon cells, Calcium-Green-5N on FLIPR, with respiratory inhibitors. To be noted: 10 micromolar Ca^2+; for Ca^2+-5N fluorescence after the second Ca^2+ pulse, presence of succinate: oligomycin 5 micrograms/milliliter and rotenone 2 micromolar together (MM-GMS-TD-OR), 5 millimolar succinate; for Ca^2+-5N fluorescence after the second Ca^2+ pulse, presence of succinate / Ca^2+-5N fluorescence after the second Ca^2+ pulse, absence of succinate: FIG. 8; for signal corresponding to extramitochondrial calcium after each Ca^2+ pulse: oligomycin 5 micrograms/milliliter or rotenone 2 micromolar, three pulses, FIG. 7; for Ca^2+-5N fluorescence after the second Ca^2+ pulse, absence of succinate: oligomycin 5 micrograms/milliliter, rotenone 2 micromolar, glutamate/malate medium. It counts as cell-based. The method, then: Mitochondrial inhibitors of oxidative phosphorylation, oligomycin and rotenone, were used to observe the effect of decreased membrane potential of mitochondria on cytosol Ca^2+ levels in the adherent cell line MixCon. The adherent MixCon cells in Dulbecco's modified Eagle's medium and 10% FBS growth media were dispensed into wells of a 96-well microtiter plate at a concentration of about 6×10^4 cells in 100 microliters per well 48 hours prior to assay. Just prior to their use the growth media was aspirated from the wells. Ninety (90) microliters of MM-TD with oligomycin (5 micrograms/milliliter) or rotenone (2 micromolar), or MM-TD without either inhibitor, were added to the cells. The plate was placed in a FLIPR™ system, and three doses of the 10× stock (100 micromolar) solution of calcium were dispensed into the different wells at approximately 2 minute intervals with increasing volumes (10, 11.1, and 12.3 microliters respectively), resulting in a constant concentration of 10 micomolar Ca^2+ throughout the course of the assay. Emissions at the 531 nm wavelength were monitored by a FLIPR™ as a measure of extramitochondrial Ca^2+-Green-5N fluorescence. The signal corresponding to extramitochondrial calcium increased after each pulse and, in samples when remained high when in the presence of the two inhibitors. Alternatively, Ca^2+ is sequestered in mitochondria of cells not exposed to inhibitors (FIG. 7).
Another assay was performed to examine the effect by the respiratory inhibitors oligomycin and rotenone and subsequent release of Ca^2+ from mitochondria in the presence or absence of succinate in MixCon cells. Two different master mixes (MM and MM-GMS) were prepared with MM prepared as previously described. MM-GMS was prepared by the addition of glutamate, malate and succinate to final concentrations of 5 millimolar each, MgCl2 to a final concentration of 1 millimolar, EGTA to a final concentration of 10 micromolar, and Calcium-Green-5N to a final concentration of 0.1 micromolar, to a basic KCl-based respiratory media (BReM, Table 3). Thapsigargin was added to the MM and MM-GMS to a final concentration of 1 micromolar to yield MM-T and MM-GMS-T (where “T” indicates Thapsigargin and “GMS” indicates glutamate, malate and succinate. The cell permeabilizing agent digitonin was added to MM-T and MM-GMS-T to a final concentration of 0.03% to yield solutions designated as MM-TD and MM-GMS-TD. As indicated in some instances, the mitochondrial inhibitors oligomycin and rotenone (Calbiochem) were each added to solutions of MM-TD and MM-GMS-TD to final concentrations of 5 micrograms/milliliter and 2 micromolar, respectively.
CaCl2 was added to MM-T and MM-GMS-T to a concentration of 50 micromolar Ca^2+ to yield 5× Ca^2+ solutions in MM-T and MM-GMS-T, respectively. Versions of the 5× Ca^2+ stock solutions comprising respiratory inhibitors were also prepared (oligomycin, final concentration of 50 micrograms/milliliter; rotenone, 20 micromolar).
The MixCon cells, in Dulbecco's modified Eagle's medium and 10% FBS growth media, were dispensed into wells of a 96-well Costar 3603 microtiter plate at a concentration of 6×10^4 cells in one hundred microliters per well, 48 hours prior to the assay. Just prior to their use the growth media was aspirated from the wells. Eighty (80) microliters of MM-TD, MM-GMS-TD, MM-TD-O, MM-TD-R, and MM-GMS-TD-OR (where “O” oligomycin and “R” signifies rotenone) were dispensed into wells containing the cells. The microtiter plate was placed in a FLIPR™ preheated to 37° C. and an initial injection of 20 microliters of the 5× stock solutions (50 micromolar) of Ca^2+, with olygomycin, rotenone or no additions, were dispensed into the appropriate wells such that the Ca^2+ concentration in the assay is 10 micromolar and wells with the inhibitors remain at constant assay concentrations.
A second pulse of 25 microliters of the 5× solution was supplied after approximately 5 minutes. […]

The subject of a further experiment is calcium uniporter (CaUP). In words: Calcium uniporter (CaUP) functional assay, suspended permeabilized L6 cells, FLIPR. In kind it is cell-based, rat. The note with it: 5 microgram/milliliter oligomycin and 2 micromolar rotenone together, 16 micromolar Ca^2+; FIG. 9. The method, then: A series of functional assays were performed on non-adherent cell lines in order to optimize the mitochondria Ca—UP assay on FLIPR using Calcium-Green-5N and digitonin permeabilized cells. A dose response of Ca^2+ pulses with and without the addition of mitochondria oxidative respiration uncouplers were performed utilizing cells from […]. MM with thapsigarin, MM-T, and digitonin, MM-TD, are prepared as previously described. Ten times (10×) Ca^2+ media is prepared by adding CaCl2 (160 micromolar) to MM-T. The L6 cells were suspended in the cell permeabilizing respiratory media MM-TD at a concentration of 1×10^7 cells per milliliter. […] Emissions resulting from [Ca^2+:Calcium-Green-5N] complexes were monitored at the appropriate wavelength so as to follow changes in intracellular Ca^2+ levels throughout the assay.
Functional assays of the calcium uniporter (CaUP) were similarly performed on non-adherent L6 cells, as described above, with respiratory inhibitors oligomycin and rotenone in order to observe the effects of elimination of the membrane potential using this high throughput FLIPR. […] The emission wavelength was monitored and intracellular Ca^2+ levels observed throughout assay. […] When media with no Ca^2+ is added, the fluorescence changes only minimally (rows 3 and 4)] […]

Experiment [2] addresses T1, Ca^2+ uniporter (Homo sapiens, UniProt Q8NE86).
T1 construct: The effects of several intracellular Ca^2+ modulating agents (ICMAs) on permeabilized HepG2 cells were examined; endogenous in cells; host or cells: HepG2 (ATCC HB-8065), digitonin-permeabilized, in suspension
T1 sequence (Q8NE86 51-351): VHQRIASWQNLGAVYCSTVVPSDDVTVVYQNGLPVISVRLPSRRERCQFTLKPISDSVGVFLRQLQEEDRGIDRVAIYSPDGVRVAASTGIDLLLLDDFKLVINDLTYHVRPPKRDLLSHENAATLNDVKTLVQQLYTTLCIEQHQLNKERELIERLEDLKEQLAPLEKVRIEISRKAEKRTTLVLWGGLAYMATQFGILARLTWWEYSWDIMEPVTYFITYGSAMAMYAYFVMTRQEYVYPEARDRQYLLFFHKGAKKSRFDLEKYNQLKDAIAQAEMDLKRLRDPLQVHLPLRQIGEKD
T1 sequence (Q9H4I9 48-107 partner limits assumed): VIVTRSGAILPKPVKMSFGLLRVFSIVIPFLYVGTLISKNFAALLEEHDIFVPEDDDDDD
Description: Ca^2+ uniporter assay, digitonin-permeabilized suspended HepG2 cells, Calcium-Green-5N on FLIPR, ICMA added between two Ca^2+ pulses. In kind it is cell-based. To be noted: 5 micrograms/milliliter oligomycin, 2 micromolar rotenone, 1 micromolar FCCP; for release of sequestered Ca^2+ from mitochondria after addition of the agent: added about 3 min after first 12 micromolar Ca^2+ pulse, thapsigargin present; for mitochondrial uptake of the second Ca^2+ pulse: second Ca^2+ pulse at about t=6 min, 1 micromolar RU360.
Description: A master mix solution (MM Solution) was prepared by the addition of glutamate and malate to final concentrations of 5 millimolar each, MgCl2 to a final concentration of 1 millimolar, EGTA to a final concentrations of 0 to 8 micromolar, and Calcium-Green-5N to a final concentration of 0.1 to 1.0 micromolar, to a basic KCl-based respiratory media (“BReM”) that is described in Table 3. […] The hexapotassiun salt Calcium-Green-5N (Molecular Probes, Eugene, Oreg.) in the MM Solution is a fluorescent dye that has low binding affinity to Ca^2+.
Thapsigargin (Calbiochem, San Diego, Calif.), a Ca^2+ uptake inhibitor of the endoplasmic reticulum (ER), was added to the MM Solution to a final concentration of 1 micromolar to yield a solution designated “MM-T” (i.e., Master Mix with Thapsigargin).
The cell membrane permeabilizing agent digitonin (Sigma, St. Louis, Mo.) was added to MM-T to a final concentration of from about 0.007% to about 0.03% to yield a solution referred to as “MM-TD” (i.e., Master Mix with Thapsigargin and digitonin. CaCl2 was added to MM-T to provide a solution with a determined final concentration of Ca^2+ for the determination of intracellular Ca^2+ flux.
The effects of several intracellular Ca^2+ modulating agents (ICMAs) on permeabilized HepG2 cells were examined as follows. The mitochondrial respiratory inhibitors oligomycin (Calbiochem, San Diego, Calif.) and rotenone (Calbiochem) were added to MM-T to final concentrations of 50 micrograms/milliliter and 20 micromolar, respectively. The uncoupler FCCP was similarly added to MM-T to a 10× concentration (10 micromolar) to yield a stock solution of FCCP, MM-TF (i.e., Master Mix with Thapsigargin and FCCP). The ICMA Ru360, which blocks Ca^2+ uptake into the mitochondria by the calcium uniporter, was added to MM-T to a concentration of 100 micromolar to yield MM-T360 (i.e., Master Mix with Thapsigragin and Ru360). CaCl2 was added to MM-T to yield a 10× solution of CaCl2 (120 micromolar) in MM-T.
HepG2 cells were cultured in Eagle's minimal essential medium (MEM) with non-essential amino acids, sodium pyruvate and Earle's balanced salt solution (BSS), 90%; fetal bovine serum (FBS), 10%. Cells were centrifuged (500×g) and the growth media was aspirated from the pellet. The HepG2 cells were resuspended in MM-TD at a concentration of 1×10^7 cells/milliliter, and 100 microliters of the resuspended permeabilized cells were dispensed into wells of a 96-well Costar 3603 microplate. The plate was placed into a FLIPR™ prewarmed to 37° C. MM-T, 120 micromolar Ca^2+, was dispensed into the cell-containing wells at a volume of 11.1 microliters, yielding a final assay concentration of 12 micromolar Ca^2+. The addition of Ca^2+ at this stage of the assay is referred to as the first calcium pulse and the time at which Ca^2+ is added is designated t=0.
After about three minutes (i.e., at about t=3 min.), 12.3 microliters of one of the ICMA solutions were dispensed into wells containing permeabilized cells to yield final assay concentrations of 5 micrograms/milliliter oligomycin, 2 micromolar rotenone, 1 micromolar FCCP, 1 micromolar RU360, and MM-T (no ICMA).
Cells were exposed to a second calcium pulse by the addition of 13.7 microliters of MM-T, 120 micromolar Ca^2+, to the cells after an additional 3 minutes (i.e., at about t=6 min.).

Experiment [3] addresses T1, Ca^2+ uniporter. In words: High-throughput uniporter assay of different compounds, permeabilized HepG2 cells with and without thapsigargin, FLIPR II. The note with it: test compounds 1 micromolar. It counts as cell-based.
Description: The high-throughput uniporter assay protocol, carried out as described above for suspension cells, was used to determine the effect of different compounds on mitochondria and extramitochondrial Ca^2+ concentrations in the presence or absence of the Ca^2+ uptake inhibitor of the endoplasmic reticulum, thapsigargin (Calbiochem). Agents examined in this assay include calcium channel inhibitors, pro- and anti-oxidants, mitochondrial inhibitors and uncouplers, and the Ca—UP inhibitor Ru360. On the day of the assay, solutions of the respiratory/cell permeabilizing media containing digitonin with thapsigarin (MM-TD) and without thapsigarin (MM-D) were prepared as previously described. Calcium chloride was added to each to a final concentration of 6 micromolar Ca^2+, resulting in MM-TD, 6 uM Ca and MM-D, 6 uM Ca. A MM solution was prepared with a 10× Ca^2+ concentration of 200 micromolar for the second Ca^2+ pulse. The Ca^2+-uniporter inhibitor Ru360 was prepared at a 10× concentration of 100 microliters in MM. Ten times (10×) stock solutions of the other agents were prepared for the assay by the addition of the compounds to final concentrations of 10 micromolar into MM. […] Controls include water and 10% DMSO (Sigma) in MM.
Cells of the HepG2 cell line (hepatocellular carcinoma, ATCC HB-8065) were trypsinized from near-confluent flasks in growth media (Eagle's MEM with non-essential amino acids, sodium pyruvate and Earle's BSS, 90%; FBS 10%). Cells were centrifuged, growth media was aspirated, and cells were resuspended to a concentration of 1×10^7 cells per milliliter in MM-TD, 6 uM Ca, or MM-D, 6 uM Ca. One hundred (100) microliters of the cell suspension (about 1×10^6 cells) were delivered to wells of a microtiter plate. The plate was placed in a FLIPR™ II (used in 96-well format) warmed to 37° C. An 11.1 microliter aliquot of the 10× stock solutions with water or DMSO (controls), Ru360 (Ca—UP inhibitor), or the test compounds, were dispensed into designated wells such that the assay concentration of DMSO is 0.1%, Ru360 is 10 micromolar, and each of the test compounds are at 1 micromolar concentrations. After an additional three minutes, a second addition of 12.3 microliters of the 10× CaCl2 (200 micromolar Ca^2+), was dispensed into the wells of the microtiter plate resulting in assay concentrations of 20 micromolar Ca^2 (Extramitochondrial Ca^2+ bound to the calcium indicator dye was monitored throughout and profiles of each assay; the results are presented in FIG. 12, with all thapsigargin minus (thaps−) assays in wells corresponding to columns 1-6 and thapsigargin plus (thaps+) assays in wells corresponding to columns 7-12.

Each structure is given as a SMILES string.

For `CC[C@H]1/C=C/C=C/C[C@@H](C)[C@H](O)[C@@](C)(O)C(=O)[C@@H](C)[C@H](O)[C@@H](C)C(=O)[C@@H](C)[C@H](O)[C@@H](C)/C=C/C(=O)O[C@@H]2[C@H](C)[C@H](CC1)O[C@]1(CC[C@H](C)[C@H](C[C@@H](C)O)O1)[C@H]2C` [oligomycin], in the experiment with Ca^2+ uniporter [1], the “Ca^2+-5N fluorescence after the second Ca^2+ pulse, presence of succinate” value is “reduction of Ca^2+-5N fluorescence after the second Ca^2+ pulse”; the “signal corresponding to extramitochondrial calcium after each Ca^2+ pulse” value is “remained high”; the “Ca^2+-5N fluorescence after the second Ca^2+ pulse, absence of succinate” value is “elevated levels of Ca^2+-5N fluorescence after the second Ca^2+ pulse”. In the experiment on calcium uniporter (CaUP), the “mitochondrial sequestration of added Ca^2+” value was “Ca^2+ is not sequestered in the mitochondria”. Also, on Ca^2+ uniporter [2], the “release of sequestered Ca^2+ from mitochondria after addition of the agent” value was “caused the release of Ca^2+ from mitochondria into the cytosol” and the “mitochondrial uptake of the second Ca^2+ pulse” value is “could not sequester the added Ca^2+”.

As for `C=C(C)[C@H]1Cc2c(ccc3c2O[C@@H]2COc4cc(OC)c(OC)cc4[C@@H]2C3=O)O1` [rotenone], in the experiment on Ca^2+ uniporter [1], the “Ca^2+-5N fluorescence after the second Ca^2+ pulse, presence of succinate” value is on record as “reduction of Ca^2+-5N fluorescence after the second Ca^2+ pulse”; the “signal corresponding to extramitochondrial calcium after each Ca^2+ pulse” value was “remained high”; the “Ca^2+-5N fluorescence after the second Ca^2+ pulse, absence of succinate” value was “elevated levels of Ca^2+-5N fluorescence after the second Ca^2+ pulse”. Further, in the experiment with calcium uniporter (CaUP), the “mitochondrial sequestration of added Ca^2+” value is recorded as “Ca^2+ is not sequestered in the mitochondria”. For the same molecule, on Ca^2+ uniporter [2], the “release of sequestered Ca^2+ from mitochondria after addition of the agent” value is “caused the release of Ca^2+ from mitochondria into the cytosol” and the “mitochondrial uptake of the second Ca^2+ pulse” value is “could not sequester the added Ca^2+”. For the same molecule, the “uniporter activity profile after the 20 micromolar Ca^2+ pulse” value at Ca^2+ uniporter [3] was “Ca^2+ can no longer be sequestered by the mitochondria”.
